Assay results taken from patent US6057153A, “Stabilized external guide sequences” (Yale University, priority 1997, dated 2000).
“Also recorded” adds a separate entry of the source.

How the values were obtained:
[1] = Nuclease resistance studies in 50% human serum; assay type: in vitro ADME; conditions: 37° C., 24 h
Description: Nuclease resistance studies--100 μl of EGS oligonucleotides (5 μM), containing a trace of 5'-end-labeled oligomers, were incubated at 37° C. for different time periods (0-24 h) with 50% human serum (Sigma, S-7023). 20 μl aliquots were diluted to 100 μl with RNase-free water, phenol/chlorform extracted, and ethanol precipitated. The residue was resuspended in 10 μl of TE and 10 μl of 2× gel loading buffer containing 98% formamide, 10 mM1 EDTA and 0.1% bromophenol blue. The mixture was heated to 85° C. for 1 min, quickly cooled on ice and frozen at -20° C. prior to electrophoresis on 15% polyacrylamide/8 M urea gels. Gels were subsequently scanned on a Molecular Dynamics PHOSPHORIMAGER™, and the stability profile for each, oligomer was estimated from the ratio of the remaining intact materials versus all radio-labeled materials (intact oligomers plus degradation products). Stability studies of non radio-labeled EGS oligomers using capillary gel electrophoresis were also carried out according to the method of Leeds et al. (15).

Substrate RNA (SUB-156) = experiment: RNase P-mediated cleavage assay, single turnover conditions; assay type: biochemical, hepatitis B virus (HBV); conditions: 200 nM EGS, 20 nM substrate, saturating RNase P, 60 min
Description: RNase P-mediated cleavage assay--Human RNase P was purified from HeLa cells according to the published procedures (14). Substrate RNA (SUB-156, FIG. 24) was 5'-end labeled using T4 polynucleotide kinase and [γ-^32P]ATP. The labeling mixture was then heated to 85° C. for 1 min, diluted with RNase-free water, and purified by a MICROSPIN™ G-25 column (Pharmacia) according to the manufacturer's instructions. Cleavage reactions were conducted in a reaction buffer containing 50 mM Tris-HCl (pH 7.4), 25 mM KCl, 10 mM MgCl2 and 0.1 mM EDTA. EGS oligomers and ^32 p-5'-end-labeled RNA substrate were heated in the reaction buffer without MgCl2 to 85° C. for 1 min and then slowly cooled to room temperature. The cleavage reaction was initiated by adding 2 μl of 100 mM MgCl2 and 3 μl of RNase P (enzyme activity for this preparation: cleavage of 0.035 pmol of tRNA^Tyr precursor min^-1 μl^-1). The final reaction volume was 20 μl and the reaction was incubated at 37° C. for 60 min. […] For each sample, cleavage reactions were performed in duplicates and the average values were used. To ensure reproducibility, cleavage assays for each EGS were also repeated in two separate experiments. The all-RNA EGS-159 was used as the reference sample and its cleavage values were counted as 100%. Cleavage percentages of all other EGSs were normalized against EGS-159 (Rel. Cleavage %) except in FIG. 30 and FIG. 31 where absolute cleavage percentages (Abs. Cleavage %) were plotted.
For EGS-single turnover conditions, the final concentrations were 200 nM for EGS and 20(nM for the RNA substrate. For EGS-multiple turnover conditions, the final concentrations were 200 nM for the RNA substrate and 40 nM for EGS. When determination of the time-course was required, the reaction volume was increased to 40 μl. Aliquots of 5-8 μl were removed from the reaction mixture at different time points (e.g. 1, 5, 15, 30 and 60 min), quenched in formamide loading buffer, and loaded onto 15% polyacrylamide/8 M urea gels. Quantitation of the cleavage product and the remaining RNA substrate was achieved using a Molecular Dynamics PHOSPHORIMAGER™.
General considerations--To select lead nuclease-resistant oligonucleotide prototypes as external guide sequences among many possible modifications, a reliable yet rapid in vitro cleavage assay for routine screening was used. Human RNase P, a ribonucleoprotein, is composed of a 340-nt H1 RNA component and one or more proteins (for recent review, see Ref. 16). A 3-step screening strategy was devised: 1) All analogues once synthesized were tested by a fast qualitative cleavage assay under single turnover conditions with 10-fold excess of EGS over target RNA substrate for 60 min. […] This was the best cleavage condition used in this study. Any analogue with a reasonable activity (e.g. more than 5% cleavage) would not be missed, under these circumstances, due to the high detection sensitivity provided by PHOSPHORIMAGER™. 2) Promising analogues were then assayed for stability in 50% human serum.

[2] = tested on: EGS/target RNA complex (SUB-156) with human RNase P; experiment: Measurements of kcat and A50; assay type: biochemical, hepatitis B virus (HBV)
Description: Measurements of kcat, Km and A50 --Measurements of these kinetic parameters were carried out using conditions similar to those described above (e.g. identical cleavage buffers). For kcat measurements, aliquots were taken every 30-60 s for the first 5 min. The logarithm of the percentage of cleavage (Abs. Cleavage %) was plotted against time, and the data points were fitted using a linear least-squaresanalysis. The slope represents kcat values. For Km measurements,a fixed amount of RNase P (0.6 μl) was used, while substrate concentrations (i.e. EGS/target RNA complex) varied from 25 to 500 nM. Several EGS/target RNA ratios were assayed including 1:1, 5:1 and 10:1. Attempts were made to obtain Km and Vmax values from linear Lineweaver-Burk or Eadie-Hofstee plots. The scattered values could not be fit as a hyperbolic function. For A50 measurements, the ratio between EGS and target RNA was kept as 10:1. Various amounts of RNase P (0.3 to 3 μl) were used to conduct a 60-min cleavage reaction. Percentage of cleavage was plotted against [RNase P] in μl, and 50% cleavage values (A50) were determined using a non-linear, least-squares routine (Kaleidagraph, Synergy Software). The amount of RNase P required to reach A50 was then converted to enzyme unit. 1 unit of RNase P represents the amount of RNase P that catalyzes the conversion of 1 pmol of tRNA^Tyr precursor to cleavage products per minute per μl of the enzyme preparation. 1 unit of RNase P preparation used for this study equals 28.57 μl.

[3] = Fetal Calf Serum Stability Assay; assay type: in vitro ADME; conditions: 10% heat-inactivated fetal calf serum, EGS about 5 μM
Description: Fetal Calf Serum Stability Assay: The nuclease resistance of modified EGS molecules were tested in a Fetal Calf Serum (FCS) Assay. It was reported by Shaw et al., Nucleic Acids Res. 19:747-750 (1991), that 10% FCS, when heated inactivated, mimics rather closely the human serum. The assay conditions were very similar to that previously described by Hoke et al., Nucleic Acids Res. 19:5743-5748 (1991). Briefly, an EGS analog to be tested was 5'-end labeled with T4 polynucleotide kinase and [γ-^35 S] ATP (this procedure can generate radiolabeled oligonucleotides which are resistant against dephosphorylation). The labeled EGS was then purified by phenol/chloroform extraction, followed by a Sephadex G-25 spin-column filtration. The purified EGS was mixed with cold EGS and 10% heat-inactivated fetal calf serum (FCS) so that the final concentration of EGS was about 5 μM. EGS analogues were treated over a period of 24 hours. Aliquots were withdrawn from the reaction mixture at different time points, mixed with 2× loading dye, heat inactivated at 90° C. for 3 min, then stored at -20° C. The results were analyzed on 12% polyacrylamide/7 M urea gels.

[4] = tested on: short substrate (SEQ ID NO. 1) derived from the full-length pre-genomic HBV RNA; experiment: RNAse P cleavage assay, short substrate; assay type: biochemical; conditions: for efficiency of RNase P-mediated target cleavage relative to the wild-type EGS: short substrate, EGS 200 nM, 37° C., 1 hour
Description: RNAse P Cleavage Assays: Cleavage reactions were carried out generally according to the procedure described by Yuan et al., Proc. Natl. Acad. Sci., USA, 89:8006-8010, (1992), which is hereby incorporated by reference. Briefly, short substrate reactions were made up to a total volume of 31μ in 50 mM Tris-HCl pH 7.4, 10 mM MgCl2, 25 mM KCl, 0.1 mM EDTA, […] at 37° C. for 1 hour. After incubation, the reaction solution was mixed with loading buffer (98% formamide, 10 mM EDTA, 0.025% bromophenol blue). The cleaved substrate was separated from the uncleaved by electrophoresis on a 15% acrylamide gel containing 7 M urea. The bands were quantified on a Molecular Dynamics PHOSPHORIMAGER™.
The bands corresponding to the precursor RNA substrate and the resulting two cleavage products were counted from the dried gel using a BETASCOPE™ gel analyzer (Betagen).
RNAse P was purified by DEAE SEPHAROSE™ chromatography and glycerol density gradient centrifugation essentially as described by Bartkiewicz et al., Genes Dev. 3:488-499 (1989), which is hereby incorporated by reference.
The percentage of precursor RNA substrate remaining in either assay was plotted as function of the EGS concentration and the catalytic efficiency expressed as kcat /Km (where kcat is the rate constant of cleavage and Km is the Michaelis constant), the second order rate constant for the reaction of free EGS and substrate. Following the methods of Heidenreich and Eckstein (J. Biol. Chem., 267:1904-1909 (1992), the efficiency of the cleavage reaction, kcat /Km), was determined using the formula
The EGS constructs described in Example 2 were assayed using the RNAse P cleavage assays described in Example 1 to determine the efficiency of the cleavage reaction. FIG. 1 depicts the model system using a short substrate which was used to evaluate the ability of modified EGS molecules in inducing RNase P-mediated target cleavage. The sequence of the short substrate (SEQ ID NO. 1) was derived from the full-length pre-genomic HBV RNA.

2.1 kb HBV RNA = experiment: RNAse P cleavage of large target RNA; assay type: biochemical; conditions: 250 nM EGS, 30 minutes at 37° C.
Description: To test cleavage with a longer target RNA molecules, different reaction conditions were used. Reactions in a total volume of 10 μl contained 40 mM Tris-HCl (pH 7.4), 10 mM MgCl2, 1 mM spermidine 10 mM dithiothreitol, 0.05 μg/μl nuclease-free bovine serum albumin, 0.01% (v/v) Triton-X100™, 0.8 Units/μl RNASIN, 0.2 mM ATP, 0.2 mM GTP, 0.2 mM UTP, 0.2 mM CTP, 0.1 μCi/μl [a^32 P] CTP, 2 mM m^7 G(5')pppG, 0.06 μg/μl yeast RNA, 25 mM KCl, 3 Units T7 RNA polymerase, 250 nM EGS, 1 μl of human RNAse P and 3 ng/μl linearized plasmid. Reactions were initiated by the addition of linearized plasmid and incubated for 30 minutes at 37° C. Reactions were terminated by the addition of 10 μl of 80% formaemide, 10 mM EDTA, 0.1% bromphenol blue. After heating for 2 minutes at 90° C., samples were electrophoresed for 2 hours at 48 watts on a 5% denaturing polyacrylamide gel. After vacuum drying for 1 hour at 60° C., the gel was analyzed by phosphoimaging.
Cleavage of Large Target RNA: Plasmid pAYW2.1, containing the sequence that encodes the 2.1 kb RNA of the AYW strain of HBV, was linearized by digestion with Not I, and then transcribed by T7 RNA polymerase in the presence of [α^32 P]CTP. Labeled transcripts were incubated for 30 minutes at 37° C. with RNase P in the presence of various EGS molecules. Reaction products were subjected to denaturing polyacrylamide gel electrophoresis, and analyzed by phosphoimaging. EGS-mediated cleavage at the targeted site of the 2.1 kb transcript produces cleavage products that are approximately 1.7 and 0.4 kb in length.

With “EGS-398: lead prototype, U54 replaced with 2'-deoxyuridine, SEQ ID NO. 44 (guide AGAUGAUAGAAGGUUAGAAUCCUUCACGCCGC; 2'-deoxyuridine at tRNA position 54, rest of chemistry not given here)” the “degradation in 50% human serum” value [1] was “no degradation products were detected”, the “RNase P-mediated cleavage activity compared to the all-RNA control” value (Substrate RNA (SUB-156)) was “promising” and the “A50 (amount of RNase P required to achieve 50% cleavage)” value ([2]; 60 min, EGS in 10-fold excess relative to the RNA target) was 0.061 unit. For the same substance, the kcat ([2]; single turnover, first 5 min) was “indistinguishable from that of the all-RNA control”.

In the case of “INNO-139: SEQ ID NO. 3, variable loop deleted, 2'-O-methyl recognition sequences and T stem (CGAUGAAGGUUCGAAUCCUUCCCAGGAC; 2'-O-methyl modifications, chemistry not fully specified)”, the “half-life in 10% FCS” value [3] is reported as 2 h, the “turnover of EGS-mediated cleavage” value ([4]; EGS 20 nM, target 400 nM (20 fold excess)) is reported as “do not significantly affects turnover” and the “efficiency of RNase P-mediated target cleavage relative to the wild-type EGS” value [4] is reported as “much of the lost activity can be restored”.

With “INNO-155: SEQ ID NO. 3, 2'-O-methyl, phosphorothioate T loop, 2'-O-methyl phosphorothioate end caps (CGAUGAAGGUUCGAAUCCUUCCCAGGAC; 2'-O-methyl, phosphorothioate T loop and end caps, positions not given here)” the “half-life in 10% FCS” value [3] was “more than 18 hours”, the “RNase P-mediated cleavage of 2.1 kb HBV RNA” value (2.1 kb HBV RNA) was “capable of inducing RNase P-mediated cleavage; also recorded: partially cleaved” and the “efficiency of RNase P-mediated target cleavage relative to the wild-type EGS” value [4] was “capable of inducing an efficient target cleavage”.

With “INNO-140: all-RNA EGS without variable loop, SEQ ID NO. 3, 28 nucleotides (CGAUGAAGGUUCGAAUCCUUCCCAGGAC; guide RNA; RNA, backbone not given here)” the “half-life in 10% FCS” value [3] was “less than 10 minutes”.
